Earlier results, collected in patent US20200115358A1, “ICARIIN AND ICARITIN DERIVATIVES” (H. LEE MOFFITT CANCER CENTER AND RESEARCH INSTITUTE, INC., priority 2016, published 2020).

System: MDSCs

Compound	inflammatory responses associated with MDSCs
COc1ccc(-c2oc3c(CCC(C)(C)O)c(O)cc(O)c3c(=O)c2O)cc1 [ICT]	effectively inhibit
Icariin	effectively inhibit
